In PubChem BioAssay (NCI):
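Dose response: 5 concentrations. Exposure: 48 h. Format: 96-well plates. Endpoint: linear interpolation; highest concentration if not reached. Here, GI50 denotes the concentration required for 50% inhibition of growth. The concentration for full growth arrest is given as TGI.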

How the values were obtained:
Experiment in all cases: DTP human tumour cell line panel, 48 h
786-0 renal = system: 786-0 renal
HOP-92 NSCLC = system: HOP-92 NSCLC
HT29 colon = system: HT29 colon
LOX IMVI melanoma = system: LOX IMVI melanoma
NCI-H460 lung = system: NCI-H460 lung
NCI-H522 lung = system: NCI-H522 lung
OVCAR-4 ovarian = system: OVCAR-4 ovarian
SK-MEL-5 melanoma = system: SK-MEL-5 melanoma
SNB-75 CNS = system: SNB-75 CNS
UACC-62 melanoma = system: UACC-62 melanoma

N#CC(C#N)=Cc1c(-c2ccccc2)[nH]c2ccccc12
GI50 (786-0 renal): 8.55 µM | TGI (786-0 renal): > 64.1 µM | GI50 (HOP-92 NSCLC): 5.6 µM | TGI (HOP-92 NSCLC): > 100 µM | GI50 (HT29 colon): 0.526 µM | TGI (HT29 colon): > 53.9 µM | GI50 (LOX IMVI melanoma): 3.27 µM | TGI (LOX IMVI melanoma): > 47.3 µM | GI50 (NCI-H460 lung): 2.02 µM | TGI (NCI-H460 lung): > 39.8 µM | GI50 (NCI-H522 lung): 4.23 µM | TGI (NCI-H522 lung): 32.7 µM | GI50 (OVCAR-4 ovarian): 5.22 µM | TGI (OVCAR-4 ovarian): > 100 µM | GI50 (SK-MEL-5 melanoma): 1.08 µM | TGI (SK-MEL-5 melanoma): 12.8 µM | GI50 (SNB-75 CNS): 2 µM | TGI (SNB-75 CNS): 14.3 µM | GI50 (UACC-62 melanoma): 2.24 µM | TGI (UACC-62 melanoma): > 46.5 µM

O=C(CC(=O)c1ccc([N+](=O)[O-])cc1)C(=O)Nc1nccs1
TGI (786-0 renal): > 100 µM | TGI (HOP-92 NSCLC): > 100 µM | TGI (HT29 colon): > 100 µM | TGI (LOX IMVI melanoma): > 100 µM | TGI (NCI-H460 lung): > 100 µM | TGI (NCI-H522 lung): > 100 µM | TGI (OVCAR-4 ovarian): > 100 µM | TGI (SK-MEL-5 melanoma): > 100 µM | TGI (SNB-75 CNS): > 100 µM | TGI (UACC-62 melanoma): > 100 µM

NC1=NC(c2ccc(Cl)cc2)N(c2ccc(S(=O)(=O)Nc3ncccn3)cc2)C(N)=N1 (stereo not drawn)
TGI (786-0 renal): > 100 µM | TGI (HOP-92 NSCLC): > 100 µM | TGI (HT29 colon): > 100 µM | TGI (LOX IMVI melanoma): > 100 µM | TGI (NCI-H460 lung): > 100 µM | TGI (NCI-H522 lung): > 100 µM | TGI (OVCAR-4 ovarian): > 100 µM | TGI (SK-MEL-5 melanoma): > 100 µM | TGI (SNB-75 CNS): > 100 µM | TGI (UACC-62 melanoma): > 100 µM

Cc1c(C(=O)CC(=O)C(=O)Nc2c(C(C)C)cccc2C(C)C)[n+](=O)c2ccccc2n1[O-]
TGI (786-0 renal): 22.7 µM | TGI (HOP-92 NSCLC): 35.1 µM | TGI (HT29 colon): 13.9 µM | TGI (LOX IMVI melanoma): 12.9 µM | TGI (NCI-H460 lung): 7.02 µM | TGI (NCI-H522 lung): 5.83 µM | TGI (OVCAR-4 ovarian): 15.5 µM | TGI (SK-MEL-5 melanoma): 24.4 µM | TGI (SNB-75 CNS): 31.4 µM | TGI (UACC-62 melanoma): 22.3 µM

CCNC(C)(C)C(SS)c1ccc(Br)cc1 (stereo not drawn)
TGI (786-0 renal): 49.6 µM | TGI (HOP-92 NSCLC): > 100 µM | TGI (HT29 colon): 69.3 µM | TGI (LOX IMVI melanoma): 60.1 µM | TGI (NCI-H460 lung): > 100 µM | TGI (NCI-H522 lung): 35.1 µM | TGI (OVCAR-4 ovarian): > 100 µM | TGI (SK-MEL-5 melanoma): > 100 µM | TGI (SNB-75 CNS): > 100 µM | TGI (UACC-62 melanoma): > 100 µM

O=[N+]([O-])c1cc([N+](=O)[O-])c(Cl)c(Cl)c1Cl
GI50 (786-0 renal): 0.804 µM | TGI (786-0 renal): 2.09 µM | GI50 (HOP-92 NSCLC): 1.68 µM | TGI (HOP-92 NSCLC): 3.15 µM | GI50 (HT29 colon): 0.477 µM | TGI (HT29 colon): 1.99 µM | GI50 (LOX IMVI melanoma): 0.516 µM | TGI (LOX IMVI melanoma): 1.86 µM | GI50 (NCI-H460 lung): 2.16 µM | TGI (NCI-H460 lung): 4.99 µM | GI50 (NCI-H522 lung): 0.23 µM | TGI (NCI-H522 lung): 0.605 µM | GI50 (OVCAR-4 ovarian): 1.78 µM | TGI (OVCAR-4 ovarian): 3.16 µM | GI50 (SK-MEL-5 melanoma): 1.75 µM | TGI (SK-MEL-5 melanoma): 3.35 µM | GI50 (SNB-75 CNS): 1.54 µM | TGI (SNB-75 CNS): 2.95 µM | GI50 (UACC-62 melanoma): 1.31 µM | TGI (UACC-62 melanoma): 2.64 µM

COC(=O)C1CC(=O)CCC1c1ccccc1 (stereo not drawn)
TGI (786-0 renal): > 100 µM | TGI (HOP-92 NSCLC): > 100 µM | TGI (HT29 colon): > 100 µM | TGI (LOX IMVI melanoma): > 100 µM | TGI (NCI-H460 lung): > 100 µM | TGI (NCI-H522 lung): > 100 µM | TGI (OVCAR-4 ovarian): > 100 µM | TGI (SK-MEL-5 melanoma): > 100 µM | TGI (SNB-75 CNS): > 100 µM | TGI (UACC-62 melanoma): > 100 µM

CC[C@@]1(OC(=O)CN)C(=O)OCc2c1cc1n(c2=O)Cc2cc3cc4c(cc3nc2-1)OCO4
GI50 (786-0 renal): < 0.01 µM | TGI (786-0 renal): 0.0367 µM | GI50 (HOP-92 NSCLC): < 0.01 µM | TGI (HOP-92 NSCLC): 0.404 µM | GI50 (HT29 colon): < 0.01 µM | GI50 (LOX IMVI melanoma): < 0.01 µM | TGI (LOX IMVI melanoma): 0.119 µM | GI50 (NCI-H460 lung): < 0.01 µM | TGI (NCI-H460 lung): 0.0238 µM | GI50 (NCI-H522 lung): < 0.01 µM | TGI (NCI-H522 lung): 0.246 µM | GI50 (OVCAR-4 ovarian): 0.0988 µM | TGI (OVCAR-4 ovarian): 0.826 µM | GI50 (SK-MEL-5 melanoma): < 0.01 µM | TGI (SK-MEL-5 melanoma): 0.134 µM | GI50 (SNB-75 CNS): < 0.01 µM | GI50 (UACC-62 melanoma): < 0.01 µM | TGI (UACC-62 melanoma): 0.105 µM
